The values below come from patent US9011863B2, “Combinations of kinase inhibitors for the treatment of cancer” (Exelixis, Inc., priority 2010, dated 2015).

Assay [1] has as its system HER3 mRNA. The assay is described as follows: real-time qPCR of HER3 mRNA. Format: cell-based, human. Conditions: for HER3 mRNA/protein or pHER3: data not shown. As to the method: FIG. 12B depicts a bar chart of timed HER3 mRNA transcription in BT474 cells which were treated with 2 μM 5J8, 20 μM LY294002, and 50 nM rapamycin for 10 hours prior to RNA isolation and qPCR analysis with HER3-specific primers.

The subject of assay [2] is HER3, pHER3^Y1289, pAKT^S473. The assay is described as follows: immunohistochemistry of BT474 xenografts. Format: in vivo, mice. As to conditions: day 28. How it is done:
FIG. 18B depicts photomicrographs of immunohistochemistry sections from formalin-fixed, paraffin-embedded tumor blocks. Xenografts were harvested on day 28, 1 hour after the last dose of lapatinib and/or compound A. Antibodies used were against HER3, pHER3^Y1289, and pAKT^S473. Photographs were taken at 400× magnification (scale bar: 50 μm).
All tumor samples (collected within 1 hour of last treatment) were fixed in 10% neutral buffered formalin for 24 hours at room temperature, followed by dehydration and paraffin embedding. Immunostaining was done on 5-μm tissue sections. After deparaffinization in xylene and graded alcohols heat-induced antigen retrieval was performed in a pH 6.0 citrate buffer followed by incubation with 3% hydrogen peroxide for 20 minutes, with protein block (Dako) for 10 minutes, and finally with primary antibody overnight at 4° C. The Envision Visualization System (Dako, Carpinteria, Calif., USA) was used, followed by DAB as chromagen and counterstained with hematoxylin. Tumor sections were studied on a light microscope with an ocular magnification of 400 times. Average percentage and intensity of tumor cell staining was calculated as a histoscore (H-score) (as described in Goulding, H., et al. (1995), Hum. Pathol. 26:291-294, which is incorporated herein by reference in its entirety). An expert pathologist (MGK) scoring the sections was blinded to the type of treatment.
Using immunohistochemistry (IHC), experiments were performed to examine pharmacodynamic biomarkers of target inactivation in xenografts after 28 days of treatment. […] Therefore, experiments were performed to quantify differences in pAKT^S473 expression in both cytoplasmic and nuclear compartments in xenograft sections.

The test system of a further assay is BT474 xenografts. The assay is described as follows: BT474 xenograft experiments. Format: in vivo, mice. Conditions: trastuzumab 30 mg/kg twice-a-week i.p.; lapatinib 100 mg/kg daily; compound A 100 mg/kg daily gavage; 28 days.
Assay [3] has as its system HER3 mRNA. Conditions: ovarian cancer cells; cited from earlier work.

On to `O=C(NOCC1CC1)c1ccc(F)c(F)c1Nc1ccc(I)cc1Cl` [CI-1040], for which, in the assay on HER3 mRNA [1], the “HER3 mRNA/protein or pHER3” value is recorded as “did not upregulate HER3 mRNA/protein or pHER3”.
As for `CO[C@H]1C[C@@H]2CC[C@@H](C)[C@@](O)(O2)C(=O)C(=O)N2CCCC[C@H]2C(=O)O[C@H]([C@H](C)C[C@@H]2CC[C@@H](OCCO)[C@H](OC)C2)CC(=O)[C@H](C)/C=C(\C)[C@@H](O)[C@@H](OC)C(=O)[C@H](C)C[C@H](C)/C=C/C=C/C=C/1C` [RAD001, everolimus], the “HER3 mRNA/protein or pHER3” value with HER3 mRNA [1] was “did not upregulate HER3 mRNA/protein or pHER3”.
On to `CS(=O)(=O)CCNCc1ccc(-c2ccc3ncnc(Nc4ccc(OCc5cccc(F)c5)c(Cl)c4)c3c2)o1` [lapatinib, reference compound], for which, in assay [2], the “pHER3 by IHC” value is given as “more effective than trastuzumab in reducing pHER3”. The “HER3 mRNA levels” value in the assay with HER3 mRNA [1] (BT474, compound A 6 μM, lapatinib 1 μM, trastuzumab 10 μg/ml, 10 hours) is “markedly induced HER3 mRNA”. In the assay with BT474 xenografts, the “tumor growth, monotherapy” value is given as “significantly delayed tumor growth”.
Regarding `CS(=O)(=O)N1CCN(Cc2cc3nc(-c4cccc5[nH]ncc45)nc(N4CCOCC4)c3s2)CC1` [GDC-0941], in the assay on HER3 mRNA [3], the “HER3 mRNA downregulation by heregulin” value is “blocked downregulation of the HER3 mRNA”.
